Assay results published in ChEMBL document CHEMBL1201862, “PubChem BioAssay data set” (2004).
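A five-concentration, 48-hour dose response in 96-well plates underlies each endpoint, interpolated linearly between surrounding concentrations. GI50: concentration for 50% inhibition of growth.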 Active and inactive are the calls of the source. Cut-off read from the data, not from the text of the source: active = GI50 up to about 1.1 µM and inactive = higher.

Tests used:
Assay in all cases: NCI anticancer screen, dose series, 48 h
[1] = tested on: OVCAR-4
[2] = tested on: NCI/ADR-RES
[3] = tested on: KM-20L2
[4] = tested on: DMS-273
[5] = tested on: MDA-N
[6] = tested on: MDA-MB-435
[7] = tested on: RXF 393
[8] = tested on: UO-31
[9] = tested on: XF498
[10] = tested on: HCC 2998
[11] = tested on: HCT-15
[12] = tested on: ACHN
[13] = tested on: DLD-1
[14] = tested on: NCI-H522
[15] = tested on: Hs-578T
[16] = tested on: 786-0
[17] = tested on: HOP-18
[18] = tested on: MDA-MB-231
[19] = tested on: HL-60
[20] = tested on: SNB-78
[21] = tested on: DU-145
[22] = tested on: HOP-92
[23] = tested on: BT-549
[24] = tested on: M19-MEL
[25] = tested on: SR
[26] = tested on: NCI-H460
[27] = tested on: TK-10
[28] = tested on: DMS-114
[29] = tested on: T47D
[30] = tested on: M14
[31] = tested on: PC-3
[32] = tested on: CAKI-1
[33] = tested on: A498
[34] = tested on: K562
[35] = tested on: SF-268
[36] = tested on: SNB-19
[37] = tested on: RPMI-8226
[38] = tested on: IGROV-1
[39] = tested on: NCI-H23
[40] = tested on: SK-MEL-28
[41] = tested on: SNB-75
[42] = tested on: A549
[43] = tested on: LXFL 529
[44] = tested on: HCT-116
[45] = tested on: LOX IMVI
[46] = tested on: UACC-257
[47] = tested on: HT-29
[48] = tested on: SK-MEL-5
[49] = tested on: COLO 205
[50] = tested on: KM12
[51] = tested on: CCRF-CEM
[52] = tested on: SW-620
[53] = tested on: SN12C
[54] = tested on: U-251
[55] = tested on: Malme-3M
[56] = tested on: EKVX
[57] = tested on: SK-OV-3
[58] = tested on: OVCAR-8
[59] = tested on: OVCAR-5
[60] = tested on: OVCAR-3
[61] = tested on: SF-295
[62] = tested on: UACC-62
[63] = tested on: SF-539
[64] = tested on: MOLT-4
[65] = tested on: HOP-62
[66] = tested on: NCI-H226

CCCCCC(O)C1C(=O)OC(C)C(O)/C=C/C=C/C=C/C=C/C=C(\C)C(O)C(O)C(O)CC(O)CC(O)CC(O)CC(O)CC1O (stereo unspecified)
GI50 [1]: 1.82 µM (inactive)
GI50 [2]: 1.51 µM (inactive)
GI50 [3]: 2.28 µM (inactive)
GI50 [4]: 1.34 µM (inactive)
GI50 [5]: > 100 µM (inactive)
GI50 [6]: > 100 µM (inactive)
GI50 [7]: 1.41 µM (inactive)
GI50 [8]: 1.79 µM (inactive)
GI50 [9]: 1.49 µM (inactive)
GI50 [10]: 1.76 µM (inactive)
GI50 [11]: 2.42 µM
GI50 [12]: > 100 µM (inactive)
GI50 [13]: 1.6 µM (inactive)
GI50 [14]: 1.73 µM (inactive)
GI50 [15]: > 100 µM (inactive)
GI50 [16]: > 100 µM (inactive)
GI50 [17]: 2.48 µM (inactive)
GI50 [18]: > 100 µM (inactive)
GI50 [19]: > 100 µM (inactive)
GI50 [20]: 1.88 µM (inactive)
GI50 [21]: > 100 µM (inactive)
GI50 [22]: 1.71 µM (inactive)
GI50 [23]: > 100 µM (inactive)
GI50 [24]: 1.24 µM (inactive)
GI50 [25]: > 100 µM (inactive)
GI50 [26]: 1.56 µM (inactive)
GI50 [27]: > 100 µM (inactive)
GI50 [28]: 1.53 µM (inactive)
GI50 [29]: > 100 µM (inactive)
GI50 [30]: > 100 µM (inactive)
GI50 [31]: > 100 µM (inactive)

c1ccc([B-]23Oc4ccccc4[NH+]2c2ccccc2O3)cc1 (stereo unspecified)
GI50 [32]: > 100 µM (inactive)
GI50 [1]: > 100 µM (inactive)
GI50 [33]: > 100 µM (inactive)
GI50 [34]: 36.2 µM (inactive)
GI50 [35]: > 100 µM (inactive)
GI50 [4]: 54.6 µM (inactive)
GI50 [36]: > 100 µM (inactive)
GI50 [37]: 23.9 µM (inactive)
GI50 [38]: > 100 µM (inactive)
GI50 [39]: > 100 µM (inactive)
GI50 [40]: > 100 µM (inactive)
GI50 [7]: > 100 µM (inactive)
GI50 [41]: > 100 µM (inactive)
GI50 [42]: > 100 µM (inactive)
GI50 [43]: 63.8 µM (inactive)
GI50 [44]: > 100 µM (inactive)
GI50 [45]: 62.2 µM (inactive)
GI50 [46]: > 100 µM (inactive)
GI50 [47]: > 100 µM (inactive)
GI50 [48]: > 100 µM (inactive)
GI50 [49]: 49 µM (inactive)
GI50 [50]: 77.6 µM (inactive)
GI50 [12]: 75.7 µM (inactive)
GI50 [51]: 29.6 µM (inactive)
GI50 [13]: 46 µM (inactive)
GI50 [52]: 33.2 µM (inactive)
GI50 [53]: > 100 µM (inactive)
GI50 [14]: 16.2 µM (inactive)
GI50 [16]: > 100 µM (inactive)
GI50 [54]: > 100 µM (inactive)
GI50 [17]: > 100 µM (inactive)
GI50 [55]: > 100 µM (inactive)
GI50 [56]: > 100 µM (inactive)
GI50 [57]: > 100 µM (inactive)
GI50 [58]: 57.7 µM (inactive)
GI50 [59]: > 100 µM (inactive)
GI50 [60]: 56.6 µM (inactive)
GI50 [61]: > 100 µM (inactive)
GI50 [19]: 17.5 µM (inactive)
GI50 [62]: > 100 µM (inactive)
GI50 [20]: 77.4 µM (inactive)
GI50 [63]: > 100 µM (inactive)
GI50 [22]: > 100 µM (inactive)
GI50 [64]: 25.8 µM (inactive)
GI50 [65]: > 100 µM (inactive)
GI50 [25]: 37 µM (inactive)
GI50 [27]: 47.2 µM (inactive)
GI50 [28]: 24.9 µM (inactive)
GI50 [30]: > 100 µM (inactive)
GI50 [66]: > 100 µM (inactive)
